# Key:
# [1] = target: T1, rat α3β4 nAChR (Rattus norvegicus, UniProt P04757+P12392); type: binding
# [2] = target: T2, rat α4β2 nAChR (Rattus norvegicus, UniProt P09483+P12390); type: binding
# [3] = target: native nAChR in rat forebrain (Rattus norvegicus, UniProt P09483+P12390); type: binding
# [4] = target: T1, rat α3β4 nAChR; assay: cell-based; type: cell-based
# [5] = target: Human α4β2 nAChR (Homo sapiens, UniProt P17787+P43681); type: cell-based; details: for agonist character, α4β2: relative to nicotine
# [6] = target: rat α3β2 nAChR (Rattus norvegicus, UniProt P04757+P12390); assay: Two-electrode voltage clamp electrophysiology in Xenopus oocytes, α3β2; type: cell-based
# [7] = target: T2, rat α4β2 nAChR; type: cell-based
# [8] = target: T3, rat α7 nAChR (Rattus norvegicus, UniProt Q05941); type: cell-based
# [9] = target: T4, 5-HT3A receptor (Rattus norvegicus, UniProt P35563); assay: Two-electrode voltage clamp electrophysiology in Xenopus oocytes, 5-HT3A; type: cell-based
# T4 sequence (P35563 24-483): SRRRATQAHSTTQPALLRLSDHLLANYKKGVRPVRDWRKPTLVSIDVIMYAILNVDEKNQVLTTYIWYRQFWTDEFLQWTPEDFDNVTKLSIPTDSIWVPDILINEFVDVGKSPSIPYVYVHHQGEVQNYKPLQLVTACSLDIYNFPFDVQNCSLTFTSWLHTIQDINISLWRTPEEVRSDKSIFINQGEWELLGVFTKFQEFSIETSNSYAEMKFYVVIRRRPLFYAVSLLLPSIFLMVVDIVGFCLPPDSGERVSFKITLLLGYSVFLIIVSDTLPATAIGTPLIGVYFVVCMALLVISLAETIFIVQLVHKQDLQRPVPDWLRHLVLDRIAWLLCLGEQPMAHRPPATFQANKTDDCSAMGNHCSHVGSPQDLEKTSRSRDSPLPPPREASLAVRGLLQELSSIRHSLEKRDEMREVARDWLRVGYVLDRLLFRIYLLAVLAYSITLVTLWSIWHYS
# [10] = In-vivo toxicity; details: male, Swiss-Webster, mouse, in vivo, iv
# [11] = system: Swiss-Webster mice; details: cited from earlier work
# [12] = target: T3, rat α7 nAChR; type: binding
# [13] = system: nAChR; assay: Overall nAChR pharmacology, summary statements; details: most receptors tested
# [14] = system: Swiss-Webster mice; assay: In-vivo toxicity; details: mice; for signs of toxicity: intravenous
# Human α4β2 nAChR, sequence (P43681 29-627 limits assumed): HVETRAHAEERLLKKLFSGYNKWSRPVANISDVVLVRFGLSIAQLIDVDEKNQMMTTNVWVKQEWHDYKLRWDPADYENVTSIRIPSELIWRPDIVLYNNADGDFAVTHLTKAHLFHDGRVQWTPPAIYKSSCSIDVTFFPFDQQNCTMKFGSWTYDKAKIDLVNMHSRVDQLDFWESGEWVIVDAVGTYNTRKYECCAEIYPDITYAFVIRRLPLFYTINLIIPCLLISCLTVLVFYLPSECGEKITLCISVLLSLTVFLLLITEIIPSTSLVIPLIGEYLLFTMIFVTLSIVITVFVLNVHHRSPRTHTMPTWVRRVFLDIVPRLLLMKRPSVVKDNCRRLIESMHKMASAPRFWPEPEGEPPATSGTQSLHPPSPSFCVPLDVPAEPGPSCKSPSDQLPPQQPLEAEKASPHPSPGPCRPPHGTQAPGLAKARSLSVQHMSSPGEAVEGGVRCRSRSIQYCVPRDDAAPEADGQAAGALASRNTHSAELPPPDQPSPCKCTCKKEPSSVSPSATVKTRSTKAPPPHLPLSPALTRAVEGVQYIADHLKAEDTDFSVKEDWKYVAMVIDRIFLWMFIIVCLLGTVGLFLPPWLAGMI
# Human α4β2 nAChR, sequence (P17787 26-502): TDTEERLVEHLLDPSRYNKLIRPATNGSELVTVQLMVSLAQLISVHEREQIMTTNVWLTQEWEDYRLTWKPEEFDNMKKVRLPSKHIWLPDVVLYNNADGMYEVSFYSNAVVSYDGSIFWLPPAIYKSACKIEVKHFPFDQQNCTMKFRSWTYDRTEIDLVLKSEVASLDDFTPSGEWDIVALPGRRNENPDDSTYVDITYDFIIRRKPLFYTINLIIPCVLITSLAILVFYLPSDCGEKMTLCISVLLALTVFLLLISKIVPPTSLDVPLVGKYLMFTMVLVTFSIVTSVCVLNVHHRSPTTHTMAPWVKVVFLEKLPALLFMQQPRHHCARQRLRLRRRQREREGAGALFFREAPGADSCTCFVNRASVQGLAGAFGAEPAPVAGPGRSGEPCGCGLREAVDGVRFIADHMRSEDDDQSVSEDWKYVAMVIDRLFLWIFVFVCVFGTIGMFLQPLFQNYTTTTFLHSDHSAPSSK
# T1 sequence (P12392 21-495): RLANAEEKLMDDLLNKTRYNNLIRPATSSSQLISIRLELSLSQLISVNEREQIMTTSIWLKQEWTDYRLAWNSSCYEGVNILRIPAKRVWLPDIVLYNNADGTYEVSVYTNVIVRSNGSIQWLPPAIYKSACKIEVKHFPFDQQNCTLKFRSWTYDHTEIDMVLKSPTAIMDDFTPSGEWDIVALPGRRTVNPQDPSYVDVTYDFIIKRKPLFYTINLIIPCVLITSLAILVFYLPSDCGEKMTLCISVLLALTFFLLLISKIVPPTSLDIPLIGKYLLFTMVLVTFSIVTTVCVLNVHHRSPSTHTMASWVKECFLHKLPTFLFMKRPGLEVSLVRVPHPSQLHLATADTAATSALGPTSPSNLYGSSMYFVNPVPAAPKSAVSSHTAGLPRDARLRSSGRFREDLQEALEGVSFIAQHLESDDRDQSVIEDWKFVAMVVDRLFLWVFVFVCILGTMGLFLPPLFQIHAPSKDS
# T1 sequence (P04757 26-499): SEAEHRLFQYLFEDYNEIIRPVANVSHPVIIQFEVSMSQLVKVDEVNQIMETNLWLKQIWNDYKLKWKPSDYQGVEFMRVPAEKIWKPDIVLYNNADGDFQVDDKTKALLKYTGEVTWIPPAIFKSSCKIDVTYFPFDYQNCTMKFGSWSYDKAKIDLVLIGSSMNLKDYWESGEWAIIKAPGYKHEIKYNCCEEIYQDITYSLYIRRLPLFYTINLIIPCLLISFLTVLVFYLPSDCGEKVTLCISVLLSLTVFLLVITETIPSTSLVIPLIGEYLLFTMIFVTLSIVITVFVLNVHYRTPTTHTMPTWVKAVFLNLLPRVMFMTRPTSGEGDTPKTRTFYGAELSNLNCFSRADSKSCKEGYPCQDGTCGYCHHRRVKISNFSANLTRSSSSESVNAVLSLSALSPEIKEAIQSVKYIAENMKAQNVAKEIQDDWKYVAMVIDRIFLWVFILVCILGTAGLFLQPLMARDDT
# T2 sequence (P09483 31-630): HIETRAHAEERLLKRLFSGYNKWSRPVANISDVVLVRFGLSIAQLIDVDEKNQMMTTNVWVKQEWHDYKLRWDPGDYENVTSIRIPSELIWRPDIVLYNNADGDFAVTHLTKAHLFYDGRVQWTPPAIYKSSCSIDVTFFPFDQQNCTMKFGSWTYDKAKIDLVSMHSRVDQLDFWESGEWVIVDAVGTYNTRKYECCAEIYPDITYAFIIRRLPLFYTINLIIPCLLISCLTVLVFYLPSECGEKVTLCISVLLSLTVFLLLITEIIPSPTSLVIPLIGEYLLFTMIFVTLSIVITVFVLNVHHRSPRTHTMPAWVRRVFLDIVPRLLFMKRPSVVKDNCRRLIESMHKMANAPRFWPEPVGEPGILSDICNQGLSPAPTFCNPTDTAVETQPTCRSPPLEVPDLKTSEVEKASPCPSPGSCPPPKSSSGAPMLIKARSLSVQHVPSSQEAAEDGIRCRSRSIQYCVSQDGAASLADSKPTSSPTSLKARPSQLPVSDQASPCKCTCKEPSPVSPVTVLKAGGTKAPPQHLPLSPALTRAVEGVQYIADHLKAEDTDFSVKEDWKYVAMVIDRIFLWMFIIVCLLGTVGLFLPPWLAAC
# T2 sequence (P12390 25-500): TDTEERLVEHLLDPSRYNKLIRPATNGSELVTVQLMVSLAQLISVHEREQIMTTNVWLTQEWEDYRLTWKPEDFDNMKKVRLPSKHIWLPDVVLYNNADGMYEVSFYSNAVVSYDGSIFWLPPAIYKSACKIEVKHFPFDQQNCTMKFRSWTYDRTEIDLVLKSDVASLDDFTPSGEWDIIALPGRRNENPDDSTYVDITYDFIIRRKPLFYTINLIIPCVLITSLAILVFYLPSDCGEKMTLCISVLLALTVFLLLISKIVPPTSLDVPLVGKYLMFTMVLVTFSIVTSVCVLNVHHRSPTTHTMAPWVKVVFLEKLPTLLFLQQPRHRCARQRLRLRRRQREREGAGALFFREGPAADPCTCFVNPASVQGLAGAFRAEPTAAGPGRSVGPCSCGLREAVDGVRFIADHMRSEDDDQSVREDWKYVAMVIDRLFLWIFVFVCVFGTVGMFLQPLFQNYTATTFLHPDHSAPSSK
# T3 sequence (Q05941 23-502): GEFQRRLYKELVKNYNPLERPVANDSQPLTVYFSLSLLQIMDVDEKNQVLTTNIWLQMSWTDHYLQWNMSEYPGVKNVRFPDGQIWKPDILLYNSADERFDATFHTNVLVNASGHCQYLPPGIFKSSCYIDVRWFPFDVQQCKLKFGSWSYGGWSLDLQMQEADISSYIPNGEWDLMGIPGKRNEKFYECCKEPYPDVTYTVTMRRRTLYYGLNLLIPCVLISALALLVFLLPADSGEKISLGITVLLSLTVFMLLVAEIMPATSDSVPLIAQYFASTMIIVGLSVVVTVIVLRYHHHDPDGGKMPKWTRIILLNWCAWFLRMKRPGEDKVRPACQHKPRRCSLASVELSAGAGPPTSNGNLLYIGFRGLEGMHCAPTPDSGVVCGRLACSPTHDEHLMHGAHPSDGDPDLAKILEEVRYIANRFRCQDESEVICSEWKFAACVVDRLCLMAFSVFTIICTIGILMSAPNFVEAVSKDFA
# rat α3β2 nAChR, sequence (P04757 26-499): as the sequence (P04757 26-499) above
# rat α3β2 nAChR, sequence (P12390 25-500): as the sequence (P12390 25-500) above
# native nAChR in rat forebrain, sequence (P12390 25-500): as above
# native nAChR in rat forebrain, sequence (P09483 31-630): as the sequence (P09483 31-630) above
smiles,measurement,setting,value
"Clc1ccc2c(n1)OC13CCC1NCC23 (racemic) [(±)-1, phantasmidine]","lower binding affinity than epibatidine (2a), α3β4",[1],50 fold
same,"lower binding affinity than epibatidine (2a), α4β2",[2],10 fold
same,higher affinity for α4β2 over α3β4 receptors,[2]; binding,at least 30 fold
same,"lower binding affinity than epibatidine (2a), native receptors in rat forebrain",[3],25 fold
same,"Eudismic Ratio, 86Rb efflux α3β4",[4],47
same,"difference in functional potency vs 2a, α3β4",[4]; 86Rb efflux,18 fold
same,"agonist character, α3β4","[4]; 86Rb efflux, relative to nicotine",near-full agonist
same,"Eudismic Ratio, 86Rb efflux α4β2",[5],280
same,"difference in functional potency vs 2a, α4β2",[5]; 86Rb efflux,8 fold
same,"agonist character, α4β2",[5]; 86Rb efflux,very potent partial agonist
same,Hillslope α3β2,[6],1.57
same,"agonist character, α3β2","[6]; vs acetylcholine, oocytes",partial agonist
same,Hillslope α4β2,[7],1.6
same,"agonist character, α4β2","[7]; vs acetylcholine, oocytes",partial agonist
same,Hillslope α7,[8],1.8
same,"agonist character, α7","[8]; vs acetylcholine, oocytes",full agonist
same,Hillslope 5HT3A,[9],1.7
same,"agonist character, 5-HT3A","[9]; vs meta-chlorophenylbiguanide (mCPBG), oocytes",partial agonist
same,LD50,[10],0.27 ± 0.19 mg/kg
"Clc1ccc(C2CC3CCC2N3)cn1 (racemic) [(±)-2, epibatidine, reference compound]",LD50,[10],0.0015 ± 0.0003 mg/kg
"CN1CCC[C@H]1c1cccnc1 [2S-(−)-Nicotine, reference compound]",Emax,[4]; read-out: Emax Rat α3β4,107 ± 3%
same,LD50 in mouse,[11],0.3 mg/kg
"CO[C@H]1CC=C2CCN3CCC4=C(CC(=O)OC4)[C@]23C1 [DHβE, dihydro-β-erythroidine, reference compound]",block of currents induced by 10 nM (±)-1,"[7]; 2 min pre-application of 10 nM DHβE, n=4, α3β2 and α4β2 currents",completely blocked
"Clc1ccc2c(n1)O[C@@]13CC[C@@H]1NC[C@@H]23 [(2aS,4aR,9aR)-ent-1]","agonist character, α4β2",[5]; 86Rb efflux,full agonist
same,Hillslope α4β2,[7],1.7
same,Hillslope α7,[8],1.3
"CN1[C@@H]2CC[C@H]1C[C@@H](OC(=O)c1c[nH]c3ccccc13)C2 [tropisetron, reference compound]",block of currents induced by 100 μM (±)-1,[9],completely blocks
"CC(=O)OCC[N+](C)(C)C [Acetylcholine, reference compound]",Hillslope α4β2,[7],24 ± 6 (1.0 ± 0.1) 1.0
same,Imax α4β2,[7],24 ± 6 (1.0 ± 0.1) 1.0
same,Hillslope α7,[8],1.5
same,Imax α7,[8]; normalized to 1 mm acetylcholine,1.0 ± 0.1
"Clc1ccc2c(n1)O[C@]13CC[C@H]1NC[C@H]23 [(2aR,4aS,9aS)-1, phantasmidine]",higher affinity than the distomer ent-1,[2]; across the subtypes and forebrain of Table 1,30-44 fold
same,"affinity less than 2a, α7",[12],2 fold
same,Hillslope α4β2,[7],1.8
same,"Eudismic Ratio, electrophysiology α7",[8],5
same,Hillslope α7,[8],1.5
same,less potent than epibatidine,[13],~ 10 fold
same,more potent than nicotine,[13],~ 100 fold
same,LD50,[10],0.072 ± 0.014 mg/kg
same,less toxic than racemic 2a,[14]; LD50 comparison,48 fold
same,signs of toxicity,[14]; dose of 40 μg/kg,"piloerection, slight elevated respiration and complete recovery in less than 1 min"
same,signs of toxicity,[14]; dose of 50 μg/kg,"piloerection, elevated respiration, hyperactivity (running) progressing to tonic clonic seizures and death in less than 30 sec"
same,eudismic ratio of toxicity,[14],around 100
